How the values were obtained:
[1] = molecular target: Sigma-1 receptor; assay: Sigma-1 receptor competitive radioligand binding assay; conditions: read-out: Sigma-1 Receptor Affinity, Ki
Method: Radioligand binding assays for Sigma-1 receptors and Sigma-2 receptors were carried out by a commercial contract research organization. For Sigma-1 binding, various concentrations of test compounds from 100 μM to 1 nM were used to displace 8 nM [^3H](+)pentazocine from endogenous receptors on Jurkat cell membranes (Ganapathy M E et al. 1991, J Pharmacol. Exp. Ther. 289:251-260). 10 μM Haloperidol was used to define non-specific binding. […] 10 μM Haloperidol was used to define non-specific binding. Reactions were terminated by rapid filtration through Whatman GF/C filters using a Brandel 12R cell harvester followed by two washes with ice-cold buffer. Radioactivity on the dried filter discs was measured using a liquid scintillation analyzer (Tri-Carb 2900TR; PerkinElmer Life and Analytical Sciences). The displacement curves were plotted and the Ki values of the test ligands for the receptor subtypes were determined using GraphPad Prism (GraphPad Software Inc., San Diego, Calif.). The percentage specific binding was determined by dividing the difference between total bound (disintegrations per minute) and nonspecific bound (disintegrations per minute) by the total bound (disintegrations per minute).

[2] = molecular target: Sigma-2 receptor; assay: Sigma-2 receptor competitive radioligand binding assay; set-up: species or system rat; conditions: read-out: Sigma-2 Receptor Affinity, Ki
Method: Radioligand binding assays for Sigma-1 receptors and Sigma-2 receptors were carried out by a commercial contract research organization. For Sigma-1 binding, various concentrations of test compounds from 100 μM to 1 nM were used to displace 8 nM [^3H](+)pentazocine from endogenous receptors on Jurkat cell membranes (Ganapathy M E et al. 1991, J Pharmacol. Exp. Ther. 289:251-260). 10 μM Haloperidol was used to define non-specific binding. For Sigma-2 receptors various concentrations of test compounds from 100 μM to 1 nM were used to displace 5 nM [^3H] […] (Bowen W D, et al. 1993, Mol. Neuropharmcol 3:117-126). 10 μM Haloperidol was used to define non-specific binding. Reactions were terminated by rapid filtration through Whatman GF/C filters using a Brandel 12R cell harvester followed by two washes with ice-cold buffer. Radioactivity on the dried filter discs was measured using a liquid scintillation analyzer (Tri-Carb 2900TR; PerkinElmer Life and Analytical Sciences). The displacement curves were plotted and the Ki values of the test ligands for the receptor subtypes were determined using GraphPad Prism (GraphPad Software Inc., San Diego, Calif.). The percentage specific binding was determined by dividing the difference between total bound (disintegrations per minute) and nonspecific bound (disintegrations per minute) by the total bound (disintegrations per minute).
The affinity of candidate sigma-2 ligand compounds at sigma-1 and sigma-2 receptors was also determined by displacement of different known labeled sigma-2 or sigma-1 ligands. Filtration assays were conducted according the previously published procedure (Xu, et al., 2005). Test compounds were dissolved in N,N-Dimethylformamide (DMF), dimethyl sulfoxide (DMSO) or ethanol and then diluted in 50 mM Tris-HCl pH 7.4 buffer containing 150 mM NaCl and 100 mM EDTA. Membrane homogenates were made from guinea pig brain for sigma-1 binding assay and rat liver for sigma-2 binding assay. Membrane homogenates were diluted with 50 mM Tris-HCl buffer, pH 8.0 and incubated at 25° C. in a total volume of 150 uL in 96 well plates with the radioligand and test compounds with concentrations ranging from 0.1 nM to 10 uM. After incubation was completed, the reactions were terminated by the addition of 150 uL of ice-cold wash buffer (10 mM Tris HCl, 150 mM NaCl, pH 7.4) using a 96 channel transfer pipette (Fisher Scientific, Pittsburgh, Pa.) and the samples harvested and filtered rapidly through 96 well fiber glass filter plate (Millipore, Billerica, Mass.) that had been presoaked with 100 uL of 50 mM Tris-HCl buffer. Each filter was washed four times with 200 uL of ice-cold wash buffer (10 mM Tris-HCl, 150 mM NaCl, pH 7.4). A Wallac 1450 MicroBeta liquid scintillation counter (Perkin Elmer, Boston, Mass.) was used to quantitate the bound radioactivity.
Nonspecific binding was determined from samples that contained 10 uM of cold haloperidol.
The binding affinity, Ki values was calculated using the method of Cheng and Prusoff.

[3] = molecular target: potassium channel hERG (Homo sapiens (Human), UniProt Q12809); assay: In vitro toxicity, hERG inhibition; assay type: biochemical
Method: In vitro toxicity for Test Compounds is tested in a number of standard assays.

[4] = Mouse liver microsome (MLM) stability; assay type: in vitro ADME; conditions: mouse, microsomes
Method: A first pharmacokinetic study was performed in microsomes of mice mouse liver microsomes, MLM) by a commercial contract research organization. The studies were performed according to Obach, R. S et al. (1997) J. Pharmacol. Exp. Ther., 283: 46-58, which is incorporated herein by reference.

[5] = test system: Abeta oligomer-induced membrane trafficking deficits in primary hippocampal neurons; assay: Membrane trafficking/exocytosis (MTT) assay; conditions: read-out: Membrane Trafficking EC50; compound dosed prior to Abeta oligomer addition
Method: Primary hippocampal neurons from E18 Sprague-Dawley rat embryos were plated at optimized concentrations in 384 well plates in NB media (Invitrogen). Neurons were maintained in cultures for 3 weeks, with twice weekly feeding of NB media with N2 supplement (Invitrogen).
MTT reagent (3-(4,5-dimethylthizaol-2yl)-2,5diphenyl tetrazolium bromide) (Roche Molecular Biochemicals) was reconstituted in phosphate buffered saline to 5 mg/mL. 10 μL of MTT labeling reagent is added to each well and incubated at 37° C. for 1 h, then imaged. Exocytosis was assessed by automated microscopy and image processing to quantify the amount of endocytosed and exocytosed formazan.
Each assay plate was formatted so that compounds are tested with and without Abeta oligomer on each plate. […] Reduced formazan was first visible in intracellular vesicles. […] The dye precipitated in the aqueous environment of the culture and formed needle-shaped crystals on the surface of the neuron.

[6] = test system: neuronal cultures; assay: Functional neuronal phenotype in neuronal cultures; assay type: cell-based; set-up: key: Antagonist: antagonists (block Abeta signaling); Agonist: agonists (block Abeta signaling with U-shaped dose-response curve and toxicity at high doses); Inactive: inactive (no effect in neuronal cultures)
Method: Neuronal cultures are treated with various concentrations of sigma compounds for 24 hours and nuclear intensity compared to vehicle is measured.

Sequence of potassium channel hERG (Q12809 whole entry): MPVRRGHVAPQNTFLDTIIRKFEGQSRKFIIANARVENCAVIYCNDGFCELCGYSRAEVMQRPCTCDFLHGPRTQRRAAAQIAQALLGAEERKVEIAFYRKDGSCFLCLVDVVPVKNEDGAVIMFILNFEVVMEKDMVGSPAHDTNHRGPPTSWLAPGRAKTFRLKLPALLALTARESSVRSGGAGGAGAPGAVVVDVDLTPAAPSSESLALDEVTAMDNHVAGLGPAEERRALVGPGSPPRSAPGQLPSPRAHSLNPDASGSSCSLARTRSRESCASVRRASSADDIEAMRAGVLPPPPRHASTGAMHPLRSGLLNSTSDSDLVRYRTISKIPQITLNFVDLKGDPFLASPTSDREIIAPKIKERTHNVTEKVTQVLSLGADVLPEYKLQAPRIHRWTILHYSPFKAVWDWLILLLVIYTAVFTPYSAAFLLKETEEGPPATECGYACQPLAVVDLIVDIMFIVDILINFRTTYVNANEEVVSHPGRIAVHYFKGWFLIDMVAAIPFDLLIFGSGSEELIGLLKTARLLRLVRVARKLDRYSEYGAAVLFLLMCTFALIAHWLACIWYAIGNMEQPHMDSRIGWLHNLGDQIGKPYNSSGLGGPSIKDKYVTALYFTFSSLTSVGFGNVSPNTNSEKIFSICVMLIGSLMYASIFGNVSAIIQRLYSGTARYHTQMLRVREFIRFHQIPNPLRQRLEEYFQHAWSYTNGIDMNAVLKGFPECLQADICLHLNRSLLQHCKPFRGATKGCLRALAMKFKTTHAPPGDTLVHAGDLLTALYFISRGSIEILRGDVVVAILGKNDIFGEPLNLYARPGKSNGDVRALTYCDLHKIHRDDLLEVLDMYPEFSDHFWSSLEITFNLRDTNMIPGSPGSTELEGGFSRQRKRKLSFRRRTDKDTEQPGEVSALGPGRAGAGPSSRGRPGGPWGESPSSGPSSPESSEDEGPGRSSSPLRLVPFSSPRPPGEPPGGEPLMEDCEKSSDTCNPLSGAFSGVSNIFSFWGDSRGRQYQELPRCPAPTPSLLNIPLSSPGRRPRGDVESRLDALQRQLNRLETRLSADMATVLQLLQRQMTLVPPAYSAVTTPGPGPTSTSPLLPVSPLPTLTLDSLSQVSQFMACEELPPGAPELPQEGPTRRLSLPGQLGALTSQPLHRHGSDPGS

| SMILES | Ki [1] [µM] | Ki [2] [µM] | Mouse liver microsomes, MLM t½ [4] [min] | IC50 [3] [µM] | EC50 [5] [µM] | neuronal phenotype [6] |
| --- | --- | --- | --- | --- | --- | --- |
| C[C@H](CCc1ccc(Cl)c(Cl)c1)N1Cc2cccc(F)c2C1 [compound 9] | 0.017 | 0.0036 | 12 | 6.7 | 0.22 | Antagonist |
| C[C@H](CCc1ccc(O)c(OC(F)(F)F)c1)N1Cc2cc3c(cc2C1)OCO3 [compound 24] | 0.0049 | 0.052 | 5 | 0.86 | 0.5 | Antagonist |
| COc1cc(CCC(C)(C)N2Cc3ccc(F)cc3C2)ccc1OCCO [compound 45] | 2.8 | 0.19 | 96 | 0.22 | > 20 | Inactive |
| COc1cc(CCC(C)(C)N2Cc3cccc(C(=O)NCCO)c3C2)ccc1O [compound 79] | 10 | 0.46 | 144 | 11 | 100 | Inactive |
| C[C@H](CCc1ccc(F)cc1)N1Cc2ccc(F)cc2C1 [compound 22] | 0.044 | 0.023 | 7 | 0.35 | < 0.25 | Antagonist |
| COc1cc2c(cc1OC)CN([C@@H](C)CCc1ccc(Cl)c(Cl)c1)C2 [compound 20] | 0.00057 | 0.00067 | 43 | 0.66 | 0.067 to 0.6 |  |
| COc1cc2c(cc1OC)CN([C@H](C)CCc1ccc(Cl)c(Cl)c1)C2 [compound 11] | 0.014 | 0.00044 | 61 | 0.29 | 0.7 | Antagonist |
| CC(C)Oc1cc(CC[C@@H](C)N2Cc3cc4c(cc3C2)OCO4)ccc1O [compound 25] | 0.0057 | 0.11 | 4 | 3.2 | > 20 | Inactive/ |
| CC(C)(CCc1ccc(O)c(OC(F)(F)F)c1)N1Cc2ccc(S(C)(=O)=O)cc2C1 [compound 61] | 0.033 | 0.0069 | 114 | 0.79 | < 0.02 | Antagonist |
| CC(C)COc1cc(CCC(C)(C)N2Cc3cccc(F)c3C2)ccc1O [compound 88] | 0.096 | 0.0013 | 28 | 2.8 | 0.36 | Neuroactive |
| CC(C)Oc1cc(CCC(C)(C)N2Cc3ccc(S(C)(=O)=O)cc3C2)ccc1O [compound 70] | 0.05 | 0.009 | 79 | 3.1 |  | Inactive |
| COCCNC(=O)c1cccc2c1CN(C(C)(C)CCc1ccc(O)c(OC)c1)C2 [compound 84] | 10 | 10 | 163 | 6.6 | 100 |  |
| CN(C)C(=O)c1cccc2c1CN(C(C)(C)CCc1ccc(O)c(OC(C)(C)C)c1)C2 [compound 59] | 10 | 0.057 | 8 | 18 |  | Inactive |
| COc1cc(CCC(C)(C)N2Cc3ccc(F)cc3C2)ccc1OC(=O)N(C)C [compound 50] | 0.75 | 0.037 | 33 | 4.4 |  | weak and antagonist |

More lines, in order of falling Ki [1], values ahead:

| Ki [1] [µM] | Ki [2] [µM] | Mouse liver microsomes, MLM t½ [4] [min] | SMILES | IC50 [3] [µM] | EC50 [5] [µM] | neuronal phenotype [6] |
| --- | --- | --- | --- | --- | --- | --- |
| 3.6 | 0.022 | 582 | COc1cc2c(cc1OC)CN(C(C)(C)CCc1ccc(OCCO)c(OC)c1)C2 [compound 48] | 1.7 | > 20 | Inactive |
| 0.7 | 0.095 | 26 | CN(C)C(=O)c1cccc2c1CN(C(C)(C)CCc1ccc(O)c(OC(F)(F)F)c1)C2 [compound 57] | 5 | > 20 | Inactive |
| 0.33 | 0.012 | 7 | C[C@H](CCc1ccc(F)cc1)N1Cc2cccc(F)c2C1 [compound 21] | 15 | > 20 | Inactive |
| 0.22 | 0.91 | 126 | COc1cc(CC[C@@H](C)N2Cc3ccc(F)cc3C2)ccc1OCCO [compound 30] | 4.7 | 0.3 | Antagonist |
| 0.18 | 0.0086 | 52 | COc1cc(CCC(C)(C)N2Cc3cccc(S(C)(=O)=O)c3C2)ccc1O [compound 64] | 20 |  | Inactive |
| 0.13 | 0.54 | 97 | COc1cc(CC[C@@H](C)N2Cc3cc4c(cc3C2)OCO4)ccc1OCCO [compound 52] | 3.2 | 0.3 | Antagonist |
| 0.11 | 0.017 | 21 | COc1cc(CCC(C)(C)N2Cc3cccc(F)c3C2)ccc1O [compound 53] | 2.8 | > 20 | Inactive |
| 0.077 | 0.8 | 66 | COc1cc(CC[C@@H](C)N2Cc3cccc(F)c3C2)ccc1OCCO [compound 51] | 1.2 |  | Neuroactive |
| 0.063 | 0.0085 | 45 | CC(C)(C)Oc1cc(CCC(C)(C)N2Cc3ccc(S(C)(=O)=O)cc3C2)ccc1O [compound 62] | 26 | 0.06 | Antagonist |
| 0.047 | 0.013 | 6 | CC(C)Oc1cc(CCC(C)(C)N2Cc3cc4c(cc3C2)OCO4)ccc1O [compound 29] | 0.54 | > 20 | Inactive/ |
| 0.0079 | 0.041 | 4 | CC(C)Oc1cc(CC[C@@H](C)N2Cc3cccc(F)c3C2)ccc1O [compound 26] | 3.7 | > 20 | Inactive |
| 0.0041 | 0.0052 | 47 | CC(C)(CCc1ccc(F)cc1)N1Cc2cc3c(cc2C1)OCO3 [compound 36] | 0.019 | 0.86 | Antagonist |
| 0.0021 | 0.0036 | 9 | CC(C)(CCc1ccc(F)cc1)N1Cc2ccc(F)cc2C1 [compound 35] | 0.13 | 2.2 | Antagonist |
| 0.0014 | 0.005 | 8 | C[C@H](CCc1ccc(Cl)c(Cl)c1)N1Cc2cc3c(cc2C1)OCO3 [compound 10] | 41 | 0.5 | Antagonist |
